The record followed here is US7838498B2, “Benzylic glycoside derivatives and methods of use” (Theracos, Inc., priority 2007, dated 2010).

One experiment addresses T1, human SGLT2 (Homo sapiens, UniProt P31639).
T1 construct: A full-length cDNA clone expressing human SGLT2 (GenScript Corporation) was subcloned
T1 sequence (P31639 1-672): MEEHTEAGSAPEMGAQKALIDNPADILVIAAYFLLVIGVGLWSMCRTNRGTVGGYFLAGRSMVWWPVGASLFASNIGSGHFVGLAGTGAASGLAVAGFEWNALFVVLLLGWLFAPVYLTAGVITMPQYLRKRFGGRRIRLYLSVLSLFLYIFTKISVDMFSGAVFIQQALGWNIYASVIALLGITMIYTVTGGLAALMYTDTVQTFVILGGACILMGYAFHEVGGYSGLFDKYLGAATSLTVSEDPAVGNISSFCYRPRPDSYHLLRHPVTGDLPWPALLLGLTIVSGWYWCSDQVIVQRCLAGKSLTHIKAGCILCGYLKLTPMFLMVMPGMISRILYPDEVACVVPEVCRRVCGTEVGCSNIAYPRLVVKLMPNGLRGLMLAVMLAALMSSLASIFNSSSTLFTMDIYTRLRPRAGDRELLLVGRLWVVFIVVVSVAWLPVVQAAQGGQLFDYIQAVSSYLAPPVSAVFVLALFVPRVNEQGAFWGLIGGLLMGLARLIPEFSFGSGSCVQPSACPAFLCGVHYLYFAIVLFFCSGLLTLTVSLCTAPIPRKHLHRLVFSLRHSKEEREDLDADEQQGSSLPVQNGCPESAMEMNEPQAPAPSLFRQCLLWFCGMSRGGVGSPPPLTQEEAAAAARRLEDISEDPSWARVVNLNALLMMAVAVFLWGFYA
Description: Methyl-α-D-[U-14C]glucopyranoside uptake assay, cells stably expressing human SGLT2. Format: cell-based. The settings on record: HEK293.ETN cells expressing human SGLT2, 1.5 h incubation. From the text: A full-length cDNA clone expressing human SGLT2 (GenScript Corporation) was subcloned into […] and Not I sites of pEAK15 expression vector. Clones harboring the cDNA inserts were identified by restriction analysis.
Plasmid containing human SGLT2 was linearized with Nsi I and purified by agarose gel electrophoresis. Using Lipofectamine 2000 Transfection Reagent (Invitrogen Corporation), DNA was transfected into HEK293.ETN cells and cultured in Dulbecco's Modified Eagle Medium (DMEM) containing 10% fetal bovine serum (FBS) at 37° C. under 5% CO2 for 24 h. Transfectants were selected in the same growth medium supplemented with puromycin (Invitrogen Corporation) for two weeks. Puromycin-resistant cells were recovered and seeded on a fresh 96-well plate (single cell per well) and cultured in the presence of puromycin until cells became confluent. Puromycin-resistant clones were evaluated for SGLT2 activity in the methyl-α-D-[U-^14C]glucopyranoside uptake assay described below.
(§1) Cells expressing SGLT1 or SGLT2 were seeded on 96-well ScintiPlate scintillating plates (PerkinElmer, Inc.) in DMEM containing 10% FBS (1×10^5 cells per well in 100 μL medium) incubated at 37° C. under 5% CO2 for 48 h prior to the assay. Cells were washed twice with 150 μL of either sodium buffer (137 mM NaCl, 5.4 mM KCl, 2.8 mM CaCl2, 1.2 mM MgCl2, 10 mM tris(hydroxymethyl)aminomethane/N2-hydroxyethylpiperazine-N′-ethanesulfonic acid [Tris/Hepes], pH 7.2) or sodium-free buffer (137 mM N-methyl-glucamine, 5.4 mM KCl, 2.8 mM CaCl2, 1.2 mM MgCl2, 10 mM Tris/Hepes, pH 7.2). Test compound in 50 μL each of sodium or sodium-free buffer containing 40 μCi/L methyl-α-D-[U-^14C]glucopyranoside (Amersham Biosciences/GE Healthcare), either with (symbols in parentheses) or without (symbols without parentheses) 25% human serum, was added per well of a 96-well plate and incubated at 37° C. with shaking for either 2 h (SGLT1 assay) or 1.5 h (SGLT2 assay). Cells were washed twice with 150 μL of wash buffer (137 mM N-methylglucamine, 10 mM Tris/Hepes, pH 7.2) and methyl-α-D-[U-^14C]glucopyranoside uptake was quantitated using a TopCount scintillation counter (PerkinElmer, Inc.). Sodium-dependent glucopyranoside uptake was measured by subtracting the values obtained with sodium-free buffer from those obtained using sodium buffer (average of triplicate determinations).

The target of a further experiment is T2, human SGLT1 (Homo sapiens, UniProt P13866).
T2 construct: Full-length human SGLT1 cDNA on pDream2.1 expression vector was obtained from GenScript Corporation; host or cells: COS-7 cells (American Type Culture Collection)
T2 sequence (P13866 1-664): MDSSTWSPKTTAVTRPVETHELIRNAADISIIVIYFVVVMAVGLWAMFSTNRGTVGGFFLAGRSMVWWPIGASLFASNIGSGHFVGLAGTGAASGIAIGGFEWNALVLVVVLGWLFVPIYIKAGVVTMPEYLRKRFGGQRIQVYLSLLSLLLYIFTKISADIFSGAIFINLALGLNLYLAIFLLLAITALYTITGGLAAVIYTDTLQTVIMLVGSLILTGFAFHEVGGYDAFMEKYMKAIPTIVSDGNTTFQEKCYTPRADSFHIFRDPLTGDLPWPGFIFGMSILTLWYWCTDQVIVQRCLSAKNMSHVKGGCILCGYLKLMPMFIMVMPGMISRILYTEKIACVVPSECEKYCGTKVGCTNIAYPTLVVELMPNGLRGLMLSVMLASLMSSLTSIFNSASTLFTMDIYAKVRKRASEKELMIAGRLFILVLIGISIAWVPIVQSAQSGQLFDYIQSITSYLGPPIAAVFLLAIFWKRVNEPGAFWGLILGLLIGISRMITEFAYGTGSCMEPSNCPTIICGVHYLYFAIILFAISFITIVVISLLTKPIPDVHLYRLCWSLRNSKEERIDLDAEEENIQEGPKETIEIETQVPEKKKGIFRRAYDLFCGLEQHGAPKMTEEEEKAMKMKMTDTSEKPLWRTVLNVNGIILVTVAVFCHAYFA
Nature of the experiment: Methyl-α-D-[U-14C]glucopyranoside uptake assay, COS-7 cells expressing human SGLT1. The experiment is classed as cell-based. The settings on record: COS-7 cells expressing human SGLT1, 2 h incubation. On the procedure:
Full-length human SGLT1 cDNA on pDream2.1 expression vector was obtained from GenScript Corporation and propagated in Escherichia coli strain DH5α using Luria-Bertani (LB) medium containing ampicillin. Plasmid DNA was isolated using the QIAGEN Plasmid Midi Kit (QIAGEN Inc.). […] Transfected cells were stored in DMEM containing 10% dimethyl sulfoxide (DMSO) at −80° C.
as §1

[1] abbreviates: without human serum (symbols without parentheses).
The mark [2] stands for this setting: with 25% human serum (symbols in parentheses).

On to `CC#CCOCCc1cc(Cl)c(Cc2ccc(CC)cc2)cc1[C@@H]1O[C@H](CO)[C@@H](O)[C@H](O)[C@H]1O` [Compound AN, (2S,3R,4R,5S,6R)-2-(2-(2-(but-2-ynyloxy)ethyl)-4-chloro-5-(4-ethylbenzyl)phenyl)-6-(hydroxymethyl)tetrahydro-2H-pyran-3,4,5-triol], for which the values for the IC50 on human SGLT2 (setting [1]) and on human SGLT1 (setting [1]) were less than 1000 nM and 1000 to 10000 nM, respectively.
Take `C=CCOCCc1cc(Cl)c(Cc2ccc(CC)cc2)cc1[C@@H]1O[C@H](CO)[C@@H](O)[C@H](O)[C@H]1O` [Compound AD, (2S,3R,4R,5S,6R)-2-(2-(2-(allyloxy)ethyl)-4-chloro-5-(4-ethylbenzyl)phenyl)-6-(hydroxymethyl)tetrahydro-2H-pyran-3,4,5-triol]: the half-inhibitory concentration (IC50) (as a rule, the point on the concentration scale where inhibition reaches its midpoint) at human SGLT2 (setting [1]) was less than 1000 nM; on human SGLT1 (setting [1]), more than 10000 nM.
The matching figures for `CCc1ccc(Cc2cc([C@@H]3O[C@H](CO)[C@@H](O)[C@H](O)[C@H]3O)c(COCCF)cc2Cl)cc1` [Compound BZ, (2S,3R,4R,5S,6R)-2-(4-chloro-5-(4-ethylbenzyl)-2-((2-fluoroethoxy)methyl)phenyl)-6-(hydroxymethyl)tetrahydro-2H-pyran-3,4,5-triol]: less than 1000 nM and more than 10000 nM.
In the same order, the values of `C#CCOCc1cc(Cl)c(Cc2ccc(CC)cc2)cc1[C@@H]1O[C@H](CO)[C@@H](O)[C@H](O)[C@H]1O` [Compound N, (2S,3R,4R,5S,6R)-2-(4-chloro-5-(4-ethylbenzyl)-2-((prop-2-ynyloxy)methyl)phenyl)-6-(hydroxymethyl)tetrahydro-2H-pyran-3,4,5-triol] are less than 1000 nM and more than 10000 nM.
In the case of `CC#CCOCc1cc(Cl)c(Cc2ccc(OC)cc2)cc1[C@@H]1O[C@H](CO)[C@@H](O)[C@H](O)[C@H]1O` [Compound BA, (2S,3R,4R,5S,6R)-2-(2-((but-2-ynyloxy)methyl)-4-chloro-5-(4-methoxybenzyl)phenyl)-6-(hydroxymethyl)tetrahydro-2H-pyran-3,4,5-triol], the half-maximal inhibitory concentration (IC50) is less than 1000 nM on human SGLT2 (setting [2]) and more than 10000 nM on human SGLT1 (setting [2]).
Take `CCc1ccc(Cc2cc([C@@H]3O[C@H](CO)[C@@H](O)[C@H](O)[C@H]3O)c(OCCOC3CCCC3)cc2Cl)cc1` [Compound BG, (2S,3R,4R,5S,6R)-2-(4-chloro-2-(2-(cyclopentyloxy)ethoxy)-5-(4-ethylbenzyl)phenyl)-6-(hydroxymethyl)tetrahydro-2H-pyran-3,4,5-triol]: the IC50 is less than 1000 nM at human SGLT2 (setting [2]) and more than 10000 nM at human SGLT1 (setting [2]).
With `CCc1ccc(Cc2cc([C@@H]3O[C@H](CO)[C@@H](O)[C@H](O)[C@H]3O)c(COCCCO)cc2Cl)cc1` [Compound AL, (2S,3R,4R,5S,6R)-2-(4-chloro-5-(4-ethylbenzyl)-2-((3-hydroxypropoxy)methyl)phenyl)-6-(hydroxymethyl)tetrahydro-2H-pyran-3,4,5-triol], the IC50 is less than 1000 nM at human SGLT2 (setting [1]) and more than 10000 nM on human SGLT1 (setting [1]).
The matching figures for `CCc1ccc(Cc2cc([C@@H]3O[C@H](CO)[C@@H](O)[C@H](O)[C@H]3O)c(COCC(C)=O)cc2Cl)cc1` [Compound K, 1-(5-chloro-4-(4-ethylbenzyl)-2-((2S,3R,4R,5S,6R)-3,4,5-trihydroxy-6-(hydroxymethyl)tetrahydro-2H-pyran-2-yl)benzyloxy)propan-2-one]: less than 1000 nM and more than 10000 nM.
The matching figures for `CC#CCOCc1cc(Cl)c(Cc2ccc(OCC)cc2)cc1[C@@H]1O[C@H](CO)[C@@H](O)[C@H](O)[C@H]1O` [Compound AY, (2S,3R,4R,5S,6R)-2-(2-((but-2-ynyloxy)methyl)-4-chloro-5-(4-ethoxybenzyl)phenyl)-6-(hydroxymethyl)tetrahydro-2H-pyran-3,4,5-triol]: less than 1000 nM and more than 10000 nM.
In the case of `C#CCOCc1cc(Cl)c(Cc2ccc(OCC)cc2)cc1[C@@H]1O[C@H](CO)[C@@H](O)[C@H](O)[C@H]1O` [Compound CC, (2S,3R,4R,5S,6R)-2-(4-chloro-5-(4-ethoxybenzyl)-2-((prop-2-ynyloxy)methyl)phenyl)-6-(hydroxymethyl)tetrahydro-2H-pyran-3,4,5-triol], the IC50 at human SGLT2 (setting [2]) is less than 1000 nM; at human SGLT1 (setting [2]), more than 10000 nM.
